Source: ChEMBL document CHEMBL1201862, “PubChem BioAssay data set” (2004)
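How tested: cells in 96-well plates exposed to compound for 48 hours at five concentrations. Here, GI50 denotes the concentration required for 50% inhibition of growth.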 Activity calls are given as the source filed them. No stated cut-off is given here; in the data, active = GI50 up to about 1.1 µM and inactive = higher.

Columns and labels:
Test in all cases: growth of human tumour cells (NCI), 48 h
SW-620 = system: SW-620
OVCAR-5 = system: OVCAR-5
CAKI-1 = system: CAKI-1
OVCAR-4 = system: OVCAR-4
SNB-75 = system: SNB-75
SK-MEL-5 = system: SK-MEL-5
EKVX = system: EKVX
RXF 393 = system: RXF 393
K562 = system: K562
M14 = system: M14
A498 = system: A498
HCT-116 = system: HCT-116
NCI-H460 = system: NCI-H460
HCC 2998 = system: HCC 2998
A549 = system: A549
UACC-257 = system: UACC-257
MOLT-4 = system: MOLT-4
LOX IMVI = system: LOX IMVI

Measured: GI50

CCCCc1ccc(-n2c3nc(=O)n(C)c(=O)c-3nc3ccccc32)cc1
inactive: SW-620 6.18 µM | OVCAR-5 18.1 µM | CAKI-1 18.4 µM | OVCAR-4 8 µM | SNB-75 15.3 µM | SK-MEL-5 1.52 µM | EKVX 4.05 µM | RXF 393 18.4 µM | K562 12.4 µM | M14 7.89 µM | A498 18.7 µM | HCT-116 12.3 µM | NCI-H460 4.03 µM | HCC 2998 4.36 µM | A549 5.61 µM | UACC-257 4.01 µM | MOLT-4 15.3 µM

O=NN(CCF)C(=O)NC1CCSCC1
inactive: SW-620 > 100 µM | OVCAR-5 > 100 µM | LOX IMVI > 100 µM | CAKI-1 > 100 µM | OVCAR-4 > 100 µM | SNB-75 > 100 µM | SK-MEL-5 > 100 µM | RXF 393 > 100 µM | K562 > 31.6 µM | A498 > 100 µM | HCT-116 > 100 µM | NCI-H460 > 100 µM | HCC 2998 > 100 µM | A549 > 100 µM | UACC-257 > 100 µM | MOLT-4 > 100 µM

CCCCC1=CSC(c2ccccc2)=C(c2ccccc2)S1
inactive: SW-620 69 µM | LOX IMVI 20.1 µM | OVCAR-4 37.6 µM | SNB-75 57 µM | SK-MEL-5 23.9 µM | EKVX > 100 µM | K562 8.83 µM | M14 85.1 µM | A498 > 100 µM | HCT-116 6.46 µM | NCI-H460 53.1 µM | HCC 2998 37.6 µM | A549 64.1 µM | MOLT-4 8.97 µM

N#CNC1=NC(CCCC(=O)Nc2cccc([N+](=O)[O-])c2)=C(c2nc3ccccc3[nH]2)C(N)N1 (configuration not stated)
inactive: SW-620 > 100 µM | OVCAR-5 > 100 µM | LOX IMVI > 100 µM | CAKI-1 > 100 µM | OVCAR-4 > 100 µM | SNB-75 > 100 µM | SK-MEL-5 > 100 µM | EKVX > 100 µM | RXF 393 > 100 µM | K562 > 100 µM | M14 > 100 µM | NCI-H460 > 100 µM | HCC 2998 > 100 µM | A549 > 100 µM | UACC-257 > 100 µM | MOLT-4 > 100 µM

CC(C(=O)C(C)O[Si](c1ccccc1)(c1ccccc1)C(C)(C)C)=P(c1ccccc1)(c1ccccc1)c1ccccc1 (configuration not stated)
inactive: SW-620 3.91 µM | OVCAR-5 11 µM | LOX IMVI 3.29 µM | CAKI-1 3.21 µM | OVCAR-4 3.37 µM | SNB-75 3.41 µM | SK-MEL-5 2.75 µM | EKVX 12.9 µM | K562 2.95 µM | M14 4.32 µM | A498 4.28 µM | HCT-116 2.98 µM | NCI-H460 3.69 µM | HCC 2998 3.57 µM | A549 3.3 µM | UACC-257 3.71 µM | MOLT-4 2.95 µM

Cc1cc(Cl)ccc1/N=C1/NC(=O)C(CC(=O)Nc2cccc(C)c2C)S1 (configuration not stated)
inactive: SW-620 35.1 µM | OVCAR-5 31.7 µM | LOX IMVI 22.3 µM | CAKI-1 23.6 µM | OVCAR-4 26.7 µM | SNB-75 19.9 µM | SK-MEL-5 20.4 µM | EKVX 37.8 µM | K562 24.8 µM | M14 18.1 µM | A498 16.9 µM | NCI-H460 31.3 µM | HCC 2998 26.2 µM | A549 32 µM | UACC-257 29.5 µM | MOLT-4 24.5 µM

COc1ccc(NC(=O)CC(=O)n2nc(C)c(/N=N/c3ccccc3C(=O)O)c2C)cc1
inactive: SW-620 > 100 µM | OVCAR-5 > 100 µM | LOX IMVI > 100 µM | CAKI-1 > 100 µM | OVCAR-4 > 100 µM | SNB-75 33 µM | SK-MEL-5 > 100 µM | EKVX > 100 µM | K562 > 100 µM | M14 > 100 µM | A498 > 100 µM | HCT-116 > 100 µM | NCI-H460 > 100 µM | HCC 2998 > 100 µM | A549 > 100 µM | UACC-257 > 100 µM | MOLT-4 > 100 µM

COC(=O)/C(C#N)=C1\CCC(O)N1C (configuration not stated)
inactive: SW-620 > 100 µM | OVCAR-5 > 100 µM | LOX IMVI > 100 µM | CAKI-1 > 100 µM | OVCAR-4 > 100 µM | SNB-75 > 100 µM | EKVX > 100 µM | RXF 393 > 100 µM | K562 > 100 µM | M14 > 100 µM | HCT-116 > 100 µM | NCI-H460 > 100 µM | HCC 2998 > 100 µM | A549 > 100 µM | UACC-257 > 100 µM | MOLT-4 > 100 µM

Cc1cc(C(C)(C)C)cc(Cc2cc(C(C)(C)C)cc(Cc3cc(C(C)(C)C)cc(C)c3O)c2O)c1O
inactive: SW-620 5.28 µM | OVCAR-5 17.5 µM | LOX IMVI 7.73 µM | CAKI-1 12.6 µM | OVCAR-4 7.5 µM | SNB-75 4.49 µM | SK-MEL-5 10 µM | EKVX 10.8 µM | RXF 393 2.19 µM | K562 4.54 µM | M14 7.26 µM | A498 19.5 µM | HCT-116 3.13 µM | NCI-H460 10.1 µM | A549 5.86 µM | UACC-257 8.45 µM | MOLT-4 3.04 µM

Cc1ccc(C2=C(c3ccccc3)C(Br)(c3ccc(C)cc3)C(c3ccccc3)=C2c2ccc(C)cc2)cc1
inactive: SW-620 > 100 µM | OVCAR-5 > 100 µM | LOX IMVI > 100 µM | CAKI-1 > 100 µM | OVCAR-4 > 100 µM | SK-MEL-5 > 100 µM | EKVX > 100 µM | K562 > 100 µM | M14 > 100 µM | A498 > 100 µM | HCT-116 > 100 µM | NCI-H460 > 100 µM | HCC 2998 > 100 µM | A549 > 100 µM | UACC-257 > 100 µM | MOLT-4 > 100 µM

CC1(C)c2ccccc2C(C)(C)C(C(=O)Nc2ccccc2)C1C(=O)O (configuration not stated)
inactive: SW-620 > 100 µM | OVCAR-5 > 100 µM | LOX IMVI > 100 µM | SNB-75 > 100 µM | SK-MEL-5 > 100 µM | EKVX > 100 µM | RXF 393 > 100 µM | K562 > 100 µM | M14 > 100 µM | A498 > 100 µM | HCT-116 95.1 µM | HCC 2998 > 100 µM | A549 > 100 µM | UACC-257 > 100 µM | MOLT-4 > 100 µM

CC1C=CC(=O)C(n2cc(F)c(=O)[nH]c2=O)O1 (configuration not stated)
inactive: SW-620 17.6 µM | LOX IMVI 15.8 µM | CAKI-1 11.6 µM | OVCAR-4 18.5 µM | SNB-75 18.8 µM | SK-MEL-5 17.9 µM | EKVX 22.5 µM | RXF 393 19.8 µM | K562 17.7 µM | M14 18.1 µM | HCT-116 15.7 µM | NCI-H460 23.3 µM | A549 24.4 µM | UACC-257 16.4 µM | MOLT-4 16.5 µM
